Counter-ions that a name gives are not always drawn. Like-named read-outs stand apart in the source and are kept apart here.
How the values were obtained:
[1] = Safety of repeated oral administration in healthy cats; format: in vivo
Procedure: MIV-701 besylate salt was administered once daily for 14 days to 4 healthy cats at three increasing doses: 2 mg/kg, 10 mg/kg and 50 mg/kg.
The three doses were consecutively administered for 14 days with a >5-day washout period between two dose levels.
Each treatment period can be resumed as follows: • J0 (T+24h): first administration, withdrawal of blood samples for pharmacokinetic and plasma CTX-1 assessment (pre-dose and 0.5h, 1h, 2h, 4h, 8h and 24h after first drug administration), pre-dose blood samples for hematology and clinical biochemistry (baseline values for safety assessment). • J5 ([…]) and J8: pre-dose blood samples. • J13: last administration, withdrawal of plasma samples for pharmacokinetic and plasma CTX-1 assessment (pre-dose and 0.5h, 1h, 2h, 4h, 8h and 24h after last drug administration), pre-dose sampling for hematology and clinical biochemistry (baseline values for safety assessment). • J15 to J≥19: washout period.

[2] = Plasma pharmacokinetic of MIV-701 after single and repeated oral administration of MIV-701 besylate salt in healthy beagle dogs; format: in vivo; details: for Cmax at 312 h / Tmax at 312 h / AUC(0-inf) at 312 h / AUC(0-t) at 312 h / half-life at 312 h / Cmax at 0 h / Tmax at 0 h / AUC(0-inf) / AUC(0-t) / half-life: dog; for AUC(0-inf) at 312 h / AUC(0-inf): read-out: AUC(0-infini) (converted); for AUC(0-t) at 312 h / AUC(0-t): read-out: AUC(0-tfinal) (converted); for half-life at 312 h / half-life: read-out: T1/2 elimination (converted)
Procedure: Compound Ib besylate salt (referred to as MIV-701 besylate salt) was administered once daily for 14 days to 3 healthy beagle dogs at three different doses: 1 mg/kg, 10 mg/kg and 100 mg/kg.
The doses were consecutively administered for 14 days with a >5-day washout period between two dose levels.
Each treatment period can be resumed as follows: • J0 (T+24h): first Compound Ib besylate salt administration, withdrawal of blood samples for pharmacokinetic and plasma CTX-1 assessment (pre-dose and 0.5h, 1h, 2h, 4h, 8h and 24h after drug administration), pre-dose blood samples for hematology and clinical biochemistry (baseline values for safety assessment). • J1 to J12: pre-dose blood samples • J13: last Compound Ib besylate salt administration, withdrawal of plasma samples for pharmacokinetic and plasma CTX-1 assessment (pre-dose and 0.5h, 1h, 2h, 4h, 8h and 24h after drug administration), pre-dose sampling for hematology and clinical biochemistry (baseline values for safety assessment). • J15-J≥19: washout period.
After centrifugation of blood samples plasma aliquots were stored at -20°C. After thawing on ice, 30 µL of plasma were transferred into 1.5 ml microtube containing 270 µL acetonitrile. Microtubes were then vigorously stirred and then centrifuged (12000 rpm, 10 min, 4°C) and the supernatant was transferred in Matrix tube for LC-MS/MS analysis. Calibration curve (9 points, 3 to 30 000 nM) was obtained by spiking plasma samples from naive dogs with appropriate quantities of Compound Ib.
Equipment: LC-MS/MS Acquity I Class-Wevo TQD (Waters®): - Acquity I Class ∘ Column: Waters® Acquity BEH C8, 50*2.1mm, 1.7 µm (40°C) ∘ Mobile phase: • ▪ A: Ammonium Formate 5mM, pH=3.8 • ▪ B: Ammonimuformate 5 mM in CH3CN 5% aqueous, pH=3.8 ∘ Injection volume: 1 µL ∘ Speed: 600 µL/min ∘ Gradient: […]
- Xevo TQD ∘ Source temperature: 150°C ∘ Desolvatation temperature: 600°C ∘ Cone gaz speed: 50L/h ∘ Desolvatation gaz speed: 1200L/h - Analytes MS characteristics
Terminal elimination half-life (t1/2) was calculated according to the following formula: T1/2 elimination = ln(2)/kel [formula] kel= slope of ln(C)=f(temps) calculated on the last points of the curves (elimination phase)/ MIV-701 exposure (Area Under the Curve; AUCt) was calculated according to trapezoidal method according to the following formula: AUCt−>inf = [C]t /kel [formula]

[3] = plasma MIV-701, oral 1 mg/kg once daily, Day 13 (repeated)
[4] = plasma MIV-701, oral 1 mg/kg, Day 0 (single)
[5] = plasma MIV-701, oral 10 mg/kg once daily, Day 13 (repeated)
[6] = plasma MIV-701, oral 10 mg/kg, Day 0 (single)
[7] = plasma MIV-701, oral 100 mg/kg once daily, Day 13 (repeated)
[8] = plasma MIV-701, oral 100 mg/kg, Day 0 (single)

Q: For `CC(C)C[C@H](NC(=O)c1ccc(-c2csc(N3CCN(C)CC3)n2)cc1)C(=O)N1C[C@H](F)[C@H]2OCC(O)(O)[C@H]21` [MIV-701 besylate salt, N-[(S)-1-((3aS,6S,6aS)-6-Fluoro-S-oxo-hexahydro-furo[3,2-b]pyrrole-4-carbony)-3-methyl-butyl]-4-[2-(4-methyl-piperazin-1-yl)-thiazol-4-yl]-benzamide benzenesulphonate], which “adverse or irreversible effect” value ([1]; oral 2 mg/kg/day and 10 mg/kg/day during 14 days) is on record?
A: Its value is “did not induce any adverse or irreversible effect”.

Q: What about the adverse signs ([1]; oral 50 mg/kg/day during 4 days, led to treatment withdrawal, reversible) of the same compound?
A: Its adverse signs is “induced some digestive and behavioral degradations”.

Q: And the “plasma accumulation of MIV-701 (Cmax, AUCs D13 vs D0)” value ([2]; 14-day repeated oral administration, three doses)?
A: Its value is “did not show plasma accumulation”.

Q: What about the Cmax at 312 h [2, 3] of the same compound?
A: Its Cmax at 312 h is 6.6 nM.

Q: And the Tmax at 312 h [2, 3]?
A: The Tmax at 312 h was 2 h.

Q: What about the AUC(0-inf) at 312 h [2, 3] of the same compound?
A: Its AUC(0-inf) at 312 h is 0.083 µM·h.

Q: What about the AUC(0-t) at 312 h [2, 3] of the same compound?
A: Its AUC(0-t) at 312 h is 0.036 µM·h.

Q: And the half-life at 312 h [2, 3]?
A: Its half-life at 312 h is 8.6 h.

Q: What about the Cmax at 0 h [2, 4] of the same compound?
A: Its Cmax at 0 h is 20 nM.

Q: And the Tmax at 0 h [2, 4]?
A: The Tmax at 0 h was 0.5 h.

Q: And the AUC(0-inf) [2, 4]?
A: The AUC(0-inf) was 0.0488 µM·h.

Q: And the AUC(0-t) [2, 4]?
A: The AUC(0-t) was 0.0429 µM·h.

Q: And the half-life [2, 4]?
A: The half-life was 2.9 h.

Q: And the Cmax at 312 h [2, 5]?
A: Its Cmax at 312 h is 130 nM.

Q: What about the Tmax at 312 h [2, 5] of the same compound?
A: Its Tmax at 312 h is 4 h.

Q: And the AUC(0-inf) at 312 h [2, 5]?
A: The AUC(0-inf) at 312 h was 1.91 µM·h.

Q: What about the AUC(0-t) at 312 h [2, 5] of the same compound?
A: Its AUC(0-t) at 312 h is 1.84 µM·h.

Q: What about the half-life at 312 h [2, 5] of the same compound?
A: Its half-life at 312 h is 4.9 h.

Q: What about the Cmax at 0 h [2, 6] of the same compound?
A: Its Cmax at 0 h is 139 nM.

Q: And the Tmax at 0 h [2, 6]?
A: The Tmax at 0 h was 1 h.

Q: What about the AUC(0-inf) [2, 6] of the same compound?
A: The AUC(0-inf) was 1.38 µM·h.

Q: And the AUC(0-t) [2, 6]?
A: Its AUC(0-t) is 1.35 µM·h.

Q: What about the half-life [2, 6] of the same compound?
A: The half-life was 4.1 h.

Q: What about the Cmax at 312 h [2, 7] of the same compound?
A: Its Cmax at 312 h is 1620 nM.

Q: What about the Tmax at 312 h [2, 7] of the same compound?
A: Its Tmax at 312 h is 1 h.

Q: And the AUC(0-inf) at 312 h [2, 7]?
A: Its AUC(0-inf) at 312 h is 21.4 µM·h.

Q: And the AUC(0-t) at 312 h [2, 7]?
A: Its AUC(0-t) at 312 h is 20.7 µM·h.

Q: And the half-life at 312 h [2, 7]?
A: The half-life at 312 h was 4.8 h.

Q: What about the Cmax at 0 h [2, 8] of the same compound?
A: The Cmax at 0 h was 1280 nM.

Q: What about the Tmax at 0 h [2, 8] of the same compound?
A: The Tmax at 0 h was 8 h.

Q: And the AUC(0-inf) [2, 8]?
A: The AUC(0-inf) was 19.9 µM·h.

Q: And the AUC(0-t) [2, 8]?
A: The AUC(0-t) was 19.4 µM·h.

Q: What about the half-life [2, 8] of the same compound?
A: Its half-life is 4 h.

Q: And the “Kel (2-8h)” value [2, 3]?
A: The value was -0.080 h⁻¹.

Q: And the “Kel (2-8h)” value [2, 4]?
A: The value was -0.236 h⁻¹.

Q: What about the “Kel (4-24h)” value [2, 5] of the same compound?
A: The value was -0.142 h⁻¹.

Q: And the “Kel (8-24h)” value [2, 6]?
A: Its value is -0.167 h⁻¹.

Q: And the “Kel (4-24h)” value [2, 7]?
A: Its value is -0.144 h⁻¹.

Q: And the “Kel (8-24h)” value [2, 8]?
A: Its value is -0.174 h⁻¹.

— patent publication EP4613273A1, “TREATMENT OF BONE LOSS” (priority 2024, dated 2025)
